Reference: patent US20150175655A1 (priority 2012, published 2015)

Key:
NS3 genotype 1b protease = target: T1, NS3 genotype 1b protease (Hepatitis C virus genotype 1b, UniProt Q9WMX2, E1202G); assay: Ki determination, NS3 protease genotype 1b (fluorogenic depsipeptide substrate); assay type: biochemical
T1 construct: Purified NS3 protease domain (amino acids 1-181) of the genotype 1b and 3a virus were generated as above; K3 hexahistidine tag (N); rTEV protease cleavage site (N); made in house; host or cells: E. coli BL21AI, pET28 vector p28-N6H-Tev-NS3(181)1b
Source text: The coding sequence of the genotype 1b (con-1 strain) HCV NS3 protease domain was PCR amplified from a plasmid encoding the I389luc-ubi-neo/NS3-3′/ET replicon (Reblikon, Mainz, Germany). The 5′-PCR primer was designed to encode an N-terminal K3 hexahistidine tag and to insert an in-frame recombinant Tobacco Etch virus (rTEV) protease cleavage site into the NS3 coding sequence. The resulting DNA fragment was cloned into the pET28 protein expression vector (Invitrogen, Carlsbad, Calif.) yielding the p28-N6H-Tev-NS3(181)1b.
BL21AI bacteria (Invitrogen, Carlsbad, Calif.) were transformed with genotype 1b or 3 NS3 expression vectors and used to inoculate a 20 L fermentation vessel (Sartorius BBI System Inc., Bethlehem, Pa.), containing 18 L of fresh 2YT medium supplemented with 50 μg/mL kanamycin. When cell densities reached an OD600 of 1, the temperature of the cultures was reduced from 37° C. to 28° C. and induction was immediately initiated by the addition of 30 μM ZnSO4, 14 mM L-arabinose and 1 mM Isopropyl β-D-thiogalactoside (IPTG) final concentrations. Cells were harvested by centrifugation four hours post-induction and were stored as frozen pellets at −80° C. prior to NS3 protein purification.
Cell pellets were thawed and resuspended at 10 mL/g cells in lysis buffer containing 50 mM tris pH 7.6, 300 mM NaCl, 0.1% 3-[(3-cholamidopropyl)dimethylammonio]-1-propanesulfonate (CHAPS), 5% glycerol, and 2 mM β-mercaptoethanol. Cell suspensions were then sonicated, filtered through cheesecloth, and passed three times through a microfluidizer at 18,000 pounds/in^2. The resulting lysates were centrifuged at 15500 rpm for 45 minutes and supernatants were loaded onto a HisTrap HP column (GE Lifesciences) pre-equilibrated with five volumes of Ni buffer A (50 mM tris pH 7.6, 300 mM NaCl, 0.1% CHAPS, 5% glycerol, 2 mM β-mercaptoethanol, 50 mM imidazole-HCl). Proteins were eluted with a 0-100% gradient of Ni buffer A plus 500 mM imidazole-HCl and fractions were collected and pooled. The HisTrap pool was diluted 1:10 with SP-A buffer (50 mM tris pH 7.0, 10% glycerol, 2 mM dithiothreitol (DTT)) and loaded onto a HiTrap SP-HP column (GE Lifesciences) equilibrated with SP-A buffer. NS3 protease was eluted with a 0-100% SP-B buffer (SP-A buffer plus 1 M NaCl) gradient. Concentrated pools of NS3-containing SP fractions were aliquoted, snap frozen in liquid nitrogen and stored at −80° C.
Purified NS3 protease domain (amino acids 1-181) of the genotype 1b and 3a virus were generated as above.
Reactions were run at room temperature in buffer consisting of 50 mM HEPES, 40% glycerol, 0.05% Triton X-100, 10 mM DTT, and 10% DMSO. The final assay solutions contained 50 pM NS3 genotype 1b protease or 200 pM genotype 3a protease, 20 μM NS4A peptide, and 4 μM substrate (genotype 1 b) or 2 μM substrate (genotype 3a). Inhibitor concentrations varied from 100 nM to 5 pM in 3-fold dilutions, and no-inhibitor controls were included.
Compound dilutions were made in DMSO at 20× final concentration. Reaction mixtures were prepared in 96-well assay plates. A solution of enzyme and NS4A peptide in assay buffer (25 μL volume with both reagents at 4× final concentration) was mixed with 45 μL assay buffer and 5 μL of either inhibitor or DMSO, and pre-incubated at room temperature for 1 hour. The reaction was started by addition of 25 μL substrate solution at 4× final concentration. Plates were mixed vigorously for 5-10 seconds and reactions were allowed to proceed for 90 minutes. fluorescence was measured every 30 s between 90 and 120 minutes reaction time using a Tecan InfiniTe M1000 or PerkinElmer Envision multimode plate reader with an excitation wavelength of 340 nm and an emission wavelength of 490 nm.
To determine the K, rates were plotted as a function of inhibitor concentration, and the data were fit with equation 1 (Morrison, J. F., Biochimica et Biophysica Acta 1969, 185, 269-286) to calculate Ki^app using GraphPad Prism 5.

[1] = test system: genotype 1b transient HCV replicon, NS3/4a protease inhibitor resistant variant D168A, in Huh-7-derived cells; assay: Transient-transfected HCV replicon EC50, genotype 1b D168A; assay type: cell-based; conditions: Hepatitis C virus, 72 h, read-out: EC50 1B D168A
[2] = test system: genotype 2a stable HCV replicon (JFH-1 strain) in Huh-7-derived cells; assay: Stable subgenomic HCV replicon EC50, genotype 2a (Renilla luciferase); assay type: cell-based; conditions: Hepatitis C virus, stable replicon genotype 2a, 72 h, read-out: EC50 2A RLUC
Experimental: (§1) Antiviral potency (EC50) was determined in both stable subgenomic HCV replicon cell lines and transient-transfected HCV replicon cells. The term half maximal effective concentration (EC50) refers to the concentration of a drug which induces a response halfway between the baseline and maximum after the exposure time specified below.
(§2) Stable subgenomic HCV replicons for genotype 1a, 1 b, 2a, 3a, and 4a were established in Huh-7-derived cells as described by Lohmann et al (Lohmann V, Korner F, Koch J, et al Replication of subgenomic hepatitis C virus RNAs in a hepatoma cell line. Science 1999; 285:119-3). Each stable cell line contains a bicistronic HCV replicon that encodes a humanized Renilla luciferase (hRLuc) reporter gene fused to a selectable neomycin-resistance gene, followed by an EMCV IRES and the NS3-NS5B coding region of HCV. […] Luciferase activity was measured as a marker for intracellular HCV replication levels.
(§3) The genotype 1a stable replicon was derived from the H77 HCV strain and contained adaptive mutations P1496L and S2204I. The genotype 1 b stable replicon was derived from the Cont HCV strain and contained adaptive mutations E1202G, T1280I, and K1846T. […] The genotype 3a stable replicon was derived from the S52 HCV strain and contained adaptive mutations P1121 L, A1198T and S2210I (equivalent to S2204I in genotype 1). The genotype 4a stable replicon was derived from the ED43 HCV strain and contained adaptive mutations Q1691R and S2204I. All replicon cell lines were propagated in Huh-7-derived cells and maintained in Dulbecco's modified Eagle's Medium (DMEM) supplemented with 10% fetal bovine serum (FBS) and 0.5 mg/mL G418.
(§4) To perform EC50 assays, cells from each HCV replicon were dispensed into 384-well plates. Compounds were dissolved in DMSO at a concentration of 10 mM and diluted in DMSO using an automated pipetting instrument. Three-fold serially diluted compounds were directly added to the cells using an automated instrument. […] Seventy-two hours later, cells were lysed and Renilla luciferase activity were quantified as recommended by the manufacturer (Promega-Madison, Wis.). Non-linear regression was performed to calculate EC50 values.

[3] = test system: genotype 1a stable HCV replicon (H77 strain) in Huh-7-derived cells; assay: Stable subgenomic HCV replicon EC50, genotype 1a (Renilla luciferase); assay type: cell-based; conditions: Hepatitis C virus, stable replicon genotype 1a, 72 h, read-out: EC50 1A RLUC
Experimental: as §1, §2, §3, §4

[4] = test system: genotype 3a stable HCV replicon (S52 strain) in Huh-7-derived cells; assay: Stable subgenomic HCV replicon EC50, genotype 3a (Renilla luciferase); assay type: cell-based; conditions: Hepatitis C virus, 72 h, read-out: EC50 3A RLUC
Experimental: as §1, §2, §3, §4

[5] = test system: genotype 1b stable HCV replicon in Huh-7-derived cells; assay: Stable subgenomic HCV replicon EC50, genotype 1b (Renilla luciferase); assay type: cell-based; conditions: Hepatitis C virus, stable replicon genotype 1b, 72 h, read-out: EC50 1B RLUC
Experimental: as §1, §2, §3, §4

[6] = test system: genotype 1a transient HCV replicon, NS3/4a protease inhibitor resistant variant R155K, in Huh-7-derived cells; assay: Transient-transfected HCV replicon EC50, genotype 1a R155K; assay type: cell-based; conditions: Hepatitis C virus, 72 h, read-out: EC50 1A R155K
[7] = test system: genotype 4a stable HCV replicon (ED43 strain) in Huh-7-derived cells; assay: Stable subgenomic HCV replicon EC50, genotype 4a (Renilla luciferase); assay type: cell-based; conditions: Hepatitis C virus, 72 h, read-out: EC50 4A RLUC
Experimental: as §1, §2, §3, §4

[8] = test system: genotype 1b (Con1) wild-type transient HCV replicon in Huh-7-derived cells; assay: Transient-transfected HCV replicon EC50, genotype 1b wild type; assay type: cell-based; conditions: Hepatitis C virus; transient-transfected replicon genotype 1b wild type, 72 h; read-out: EC50 1B WT
[9] = test system: genotype 1a (H77) wild-type transient HCV replicon in Huh-7-derived cells; assay: Transient-transfected HCV replicon EC50, genotype 1a wild type; assay type: cell-based; conditions: Hepatitis C virus; transient-transfected replicon genotype 1a wild type, 72 h; read-out: EC50 1A WT
[10] = test system: genotype 3a transient HCV replicon (S52 strain) in Huh-7-derived cells; assay: Transient-transfected HCV replicon EC50, genotype 3a wild type; assay type: cell-based; conditions: Hepatitis C virus; transient-transfected replicon genotype 3a wild type, 72 h; read-out: EC50 3A WT

Row | Compound | Ki (NS3 genotype 1b protease) | EC50 [1] | EC50 [2] | EC50 [3] | EC50 [4] | EC50 [5] | EC50 [6] | EC50 [7] | EC50 [8] | EC50 [9] | EC50 [10]
1 | COc1ccc2nc3c(nc2c1)O[C@H]1CN(C(=O)[C@H](C(C)(C)C)NC(=O)O[C@@H]2C[C@H]2CCCCC3)[C@H](C(=O)N[C@]2(C(=O)NS(=O)(=O)C3(C)CC3)C[C@H]2C(F)F)[C@@H]1C1CC1 [Example 31, (1aR,5S,8S,9S,10R,22aR)-5-tert-butyl-9-cyclopropyl-N-[(1R,2R)-2-(difluoromethyl)-1-{[(1-methylcyclopropyl)sulfonyl]carbamoyl}cyclopropyl]-14-methoxy-3,6-dioxo-1,1a,3,4,5,6,9,10,18,19,20,21,22,22a-tetradecahydro-8H-7,10-methanocyclopropa[18,19][1,10,3,6]dioxadiazacyclononadecino[11,12-b]quinoxaline-8-carboxamide] | 0.13 nM | 805 nM | 63 nM | 40 nM | 2070 nM | 18 nM | 154 nM | 20 nM | 6.6 nM | 27 nM | 
2 | C=C[C@@H]1C[C@]1(NC(=O)[C@@H]1[C@H](CC)[C@@H]2CN1C(=O)[C@H](C(C)(C)C)NC(=O)O[C@@H]1C[C@H]1CCCCC(F)(F)c1nc3ccc(OC)cc3nc1O2)C(=O)NS(=O)(=O)C1CC1 [Example 92, (1aR,5S,8S,9S,10R,22aR)-5-tert-butyl-N-{(1R,2S)-1-[(cyclopropylsulfonyl)carbamoyl]-2-ethenylcyclopropyl}-9-ethyl-18,18-difluoro-14-methoxy-3,6-dioxo-1,1a,3,4,5,6,9,10,18,19,20,21,22,22a-tetradecahydro-8H-7,10-methanocyclopropa[18,19][1,10,3,6]dioxadiazacyclononadecino[11,12-b]quinoxaline-8-carboxamide] |  |  | 4.6 nM | 3.3 nM |  | 3.2 nM | 3 nM |  | 1.7 nM | 3 nM | 8 nM
3 | CC[C@@H]1[C@@H]2CN(C(=O)[C@H](C(C)(C)C)NC(=O)O[C@@H]3C[C@H]3CC/C=C/C(F)(F)c3nc4ccc(OC)cc4nc3O2)[C@@H]1C(=O)N[C@]1(C(=O)NS(=O)(=O)C2(C)CC2)C[C@H]1C(F)F [Example 89, (1aR,5S,8S,9S,10R,19E,22aR)-5-tert-butyl-N-[(1R,2R)-2-(difluoromethyl)-1-{[(1-methylcyclopropyl)sulfonyl]carbamoyl}cyclopropyl]-9-ethyl-18,18-difluoro-14-methoxy-3,6-dioxo-1,1a,3,4,5,6,9,10,18,21,22,22a-dodecahydro-8H-7,10-methanocyclopropa[18,19][1,10,3,6]dioxadiazacyclononadecino[11,12-b]quinoxaline-8-carboxamide] |  | 5.1 nM | 4.3 nM | 6 nM | 19 nM | 6.1 nM | 3.7 nM | 4.6 nM | 3.2 nM | 6 nM | 5.5 nM
